Assay results reported in US20210040089A1, “KRAS MUTANT PROTEIN INHIBITORS” (Jacobio Pharmaceuticals Co., Ltd., priority 2019, published 2021).

What was measured:
[1] = system: Phospho-ERK1/2(THR202/TYR204) in NCI-H358 cells express KRAS G12C; assay: Phospho-ERK1/2(THR202/TYR204) HTRF assay; type: cell-based; conditions: Homo sapiens; NCI-H358, 2 hours incubation; read-out: p-ERK inhibition in NCI-H358 IC50
Outline: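 Compounds applied to attached cells for 2 h at 37 °C in RPMI 1640 with 0.1% FBS. Lysate phospho-ERK1/2 detected by HTRF after 4 h antibody incubation at 25 °C; IC50 from 4-parameter logistic fit.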

[2] = system: NCI-H358 cells express KRAS G12C; assay: Cell growth inhibition assay (CCK-8); type: cell-based; conditions: Homo sapiens, 144 h; NCI-H358, 6 days incubation
Outline: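 Antiproliferative read-out: KRAS G12C-mutant NCI-H358 lung cancer cells (3000/well) exposed to compounds in RPMI 1640 with 10% FBS for 6 days at 37°C. Viability by CCK-8 (OD450) after 1.5-2 h; IC50 from 4-parameter logistic fit.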

[3] = molecular target: T1, KRAS G12C (Homo sapiens, UniProt P01116, G12C); assay: SOS1 catalyzed nucleotide exchange assay (TR-FRET); type: biochemical; conditions: GDP-loaded HIS-KRAS(G12C), 1 hour pre-incubation with compound
T1 construct: HIS-KRAS (G12C, aa 2-185, Sino biological); purchased Sino biological
T1 sequence (P01116 2-185 isoform P01116-2 G12C): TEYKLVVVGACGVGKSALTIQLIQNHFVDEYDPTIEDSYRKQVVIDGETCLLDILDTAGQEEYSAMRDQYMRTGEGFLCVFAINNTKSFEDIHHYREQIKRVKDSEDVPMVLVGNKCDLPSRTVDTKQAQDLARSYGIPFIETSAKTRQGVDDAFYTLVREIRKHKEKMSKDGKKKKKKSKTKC
Outline: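 EDTA-stripped, GDP-loaded His-KRAS G12C (aa 2-185; 3 nM final) preincubated 1 h with compound, then SOS1 ExD (aa 564-1049; 2 μM) and BODIPY-FL GTP (80 nM) added for 4 h at 25 °C. TR-FRET via anti-His Tb cryptate (515/486 nm ratio); IC50 from 4-parameter logistic fit.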

| Structure (SMILES) | IC50 [1] [nM] | IC50 [2] [nM] | IC50 [3] [nM] |
| --- | --- | --- | --- |
| C=CC(=O)N1CCN(c2nc(OCC3(CN(C)C)CC3)nc3c2CCN(c2cccc(C)c2C)C3)CC1CC#N (stereo not drawn) [Compound 48, 2-(1-acryloyl-4-(2-((1-((dimethylamino)methyl)cyclopropyl)methoxy)-7-(2,3-dimethylphenyl)-5,6,7,8-tetrahydropyrido[3,4-d]pyrimidin-4-yl)piperazin-2-yl)acetonitrile] | 66 | 94.9 | 3.31 |
| C=CC(=O)N1CCN(c2nc(OCC3(CN4CC[C@@H](F)C4)CC3)nc3c2CCN(c2cccc4cccc(C)c24)C3)CC1CC#N (stereo partly drawn) [Compound 49, 2-(1-acryloyl-4-(2-((1-(((R)-3-fluoropyrrolidin-1-yl)methyl)cyclopropyl)methoxy)-7-(8-methylnaphthalen-1-yl)-5,6,7,8-tetrahydropyrido[3,4-d]pyrimidin-4-yl)piperazin-2-yl)acetonitrile] | 38.4 | 64.2 | 3.12 |
| C=CC(=O)N1CCN(c2nc(OCC3(CN(C)C)CC3)nc3c2CCN(c2cccc4ccsc24)C3)CC1CC#N (stereo not drawn) [Compound 50, 2-(1-acryloyl-4-(7-(benzo[b]thiophen-7-yl)-2-((1-((dimethylamino)methyl)cyclopropyl)methoxy)-5,6,7,8-tetrahydropyrido[3,4-d]pyrimidin-4-yl)piperazin-2-yl)acetonitrile] | 83.8 | 202 | 8.66 |
| C=CC(=O)N1CCN(c2nc(OCC3(CN(C)C)CC3)nc3c2CCN(c2cccc4sccc24)C3)CC1CC#N (stereo not drawn) [Compound 51, 2-(1-acryloyl-4-(7-(benzo[b]thiophen-4-yl)-2-((1-((dimethylamino)methyl)cyclopropyl)methoxy)-5,6,7,8-tetrahydropyrido[3,4-d]pyrimidin-4-yl)piperazin-2-yl)acetonitrile] | 77.1 | 99.9 | 3.28 |
| C=CC(=O)N1CCN(c2nc(OCC3(CN(C)C)CC3)nc3c2CCN(c2cccc4ncsc24)C3)CC1CC#N (stereo not drawn) [Compound 54, 2-(1-acryloyl-4-(7-(benzo[d]thiazol-7-yl)-2-((1-((dimethylamino)methyl)cyclopropyl)methoxy)-5,6,7,8-tetrahydropyrido[3,4-d]pyrimidin-4-yl)piperazin-2-yl)acetonitrile] | > 500 | > 1000 | 82.8 |
| C=CC(=O)N1CCN(c2nc(OC(C)C3(CN(C)C)CC3)nc3c2CCN(c2cccc4cccc(C)c24)C3)CC1CC#N (stereo not drawn) [Compound 57, 2-(1-acryloyl-4-(2-(1-(1-((dimethylamino)methyl)cyclopropyl)ethoxy)-7-(8-methylnaphthalen-1-yl)-5,6,7,8-tetrahydropyrido[3,4-d]pyrimidin-4-yl)piperazin-2-yl)acetonitrile] | 296 | 522 | 28.1 |
| C=CC(=O)N1CCN(c2nc(OCC3(CN4CCN(C)CC4)CC3)nc3c2CCN(c2cccc4cccc(C)c24)C3)CC1CC#N (stereo not drawn) [Compound 58, 2-(1-acryloyl-4-(7-(8-methylnaphthalen-1-yl)-2-((1-((4-methylpiperazin-1-yl)methyl)cyclopropyl)methoxy)-5,6,7,8-tetrahydropyrido[3,4-d]pyrimidin-4-yl)piperazin-2-yl)acetonitrile] | 44.3 | 36.9 | 1.47 |
| C=CC(=O)N1CCN(c2nc(OCC3(CN4CC(N(C)C)C4)CC3)nc3c2CCN(c2cccc4cccc(C)c24)C3)CC1CC#N (stereo not drawn) [Compound 59, 2-(1-acryloyl-4-(2-((1-((3-(dimethylamino)azetidin-1-yl)methyl)cyclopropyl)methoxy)-7-(8-methylnaphthalen-1-yl)-5,6,7,8-tetrahydropyrido[3,4-d]pyrimidin-4-yl)piperazin-2-yl)acetonitrile] | 57.2 | 61.9 | 1.1 |
| C=CC(=O)N1CCN(c2nc(OCC3(CN4CCCC4)CC3)nc3c2CCN(c2cccc4cccc(Cl)c24)C3)CC1CC#N (stereo not drawn) [Compound 61, 2-(1-acryloyl-4-(7-(8-chloronaphthalen-1-yl)-2-((1-(pyrrolidin-1-ylmethyl)cyclopropyl)methoxy)-5,6,7,8-tetrahydropyrido[3,4-d]pyrimidin-4-yl)piperazin-2-yl)acetonitrile] | 16.2 | 25.1 | 1.44 |
| C=CC(=O)N1CCN(c2nc(OCC3(CN4CC(F)C4)CC3)nc3c2CCN(c2cccc4cccc(C)c24)C3)CC1CC#N (stereo not drawn) [Compound 62, 2-(1-acryloyl-4-(2-((1-((3-fluoroazetidin-1-yl)methyl)cyclopropyl)methoxy)-7-(8-methylnaphthalen-1-yl)-5,6,7,8-tetrahydropyrido[3,4-d]pyrimidin-4-yl)piperazin-2-yl)acetonitrile] | 43 | 66.9 | 2.34 |
| C=CC(=O)N1CCN(c2nc(OCC3(C(=O)N4CCN(C)CC4)CC3)nc3c2CCN(c2cccc4cccc(C)c24)C3)CC1CC#N (stereo not drawn) [Compound 63, 2-(1-acryloyl-4-(7-(8-methylnaphthalen-1-yl)-2-((1-(4-methylpiperazine-1-carbonyl)cyclopropyl)methoxy)-5,6,7,8-tetrahydropyrido[3,4-d]pyrimidin-4-yl)piperazin-2-yl)acetonitrile] | 533 | 861 | 30.9 |
| C=CC(=O)N1CCN(c2nc(OCC3(CN(C)CCN(C)C)CC3)nc3c2CCN(c2cccc4cccc(C)c24)C3)CC1CC#N (stereo not drawn) [Compound 64, 2-(1-acryloyl-4-(2-((1-(((2-(dimethylamino)ethyl)(methyl)amino)methyl)cyclopropyl)methoxy)-7-(8-methylnaphthalen-1-yl)-5,6,7,8-tetrahydropyrido[3,4-d]pyrimidin-4-yl)piperazin-2-yl)acetonitrile] | 124 | 74.5 | 1.69 |
| C=CC(=O)N1CCN(c2nc(OCC3(CN4CC[C@H](N(C)C)C4)CC3)nc3c2CCN(c2cccc4cccc(C)c24)C3)CC1CC#N (stereo partly drawn) [Compound 65, 2-(1-acryloyl-4-(2-((1-(((S)-3-(dimethylamino)pyrrolidin-1-yl)methyl)cyclopropyl)methoxy)-7-(8-methylnaphthalen-1-yl)-5,6,7,8-tetrahydropyrido[3,4-d]pyrimidin-4-yl)piperazin-2-yl)acetonitrile] | 87.8 | 32.8 | 1.46 |
| C=CC(=O)N1CCN(c2nc(OCC3(CN4CCN(C(C)=O)CC4)CC3)nc3c2CCN(c2cccc4cccc(C)c24)C3)CC1CC#N (stereo not drawn) [Compound 66, 2-(4-(2-((1-((4-acetylpiperazin-1-yl)methyl)cyclopropyl)methoxy)-7-(8-methylnaphthalen-1-yl)-5,6,7,8-tetrahydropyrido[3,4-d]pyrimidin-4-yl)-1-acryloylpiperazin-2-yl)acetonitrile] | 13.6 | 25.1 | 1.46 |
| Cc1cccc2cccc(N3CCc4c(nc(OCC5(CN(C)C)CC5)nc4N4CCN(C(=O)/C=C/CO)C(CC#N)C4)C3)c12 (stereo not drawn) [Compound 69, (E)-2-(4-(2-((1-((dimethylamino)methyl)cyclopropyl)methoxy)-7-(8-methylnaphthalen-1-yl)-5,6,7,8-tetrahydropyrido[3,4-d]pyrimidin-4-yl)-1-(4-hydroxybut-2-enoyl)piperazin-2-yl)acetonitrile] | 157 | 77.6 | 2.73 |
| COC/C=C/C(=O)N1CCN(c2nc(OCC3(CN(C)C)CC3)nc3c2CCN(c2cccc4cccc(C)c24)C3)CC1CC#N (stereo not drawn) [Compound 70, (E)-2-(4-(2-((1-((dimethylamino)methyl)cyclopropyl)methoxy)-7-(8-methylnaphthalen-1-yl)-5,6,7,8-tetrahydropyrido[3,4-d]pyrimidin-4-yl)-1-(4-methoxybut-2-enoyl)piperazin-2-yl)acetonitrile] | 172 | 195 | 3.41 |
| C=C(F)C(=O)N1CCN(c2nc(OCC3(CN4CCN(C)CC4)CC3)nc3c2CCN(c2cccc4cccc(C)c24)C3)CC1CC#N (stereo not drawn) [Compound 71, 2-(1-(2-fluoroacryloyl)-4-(7-(8-methylnaphthalen-1-yl)-2-((1-((4-methylpiperazin-1-yl)methyl)cyclopropyl)methoxy)-5,6,7,8-tetrahydropyrido[3,4-d]pyrimidin-4-yl)piperazin-2-yl)acetonitrile] | 505 | 369 | 7.57 |
| C=C(F)C(=O)N1CCN(c2nc(OCC3(CN4CCCC4)CC3)nc3c2CCN(c2cccc4cccc(C)c24)C3)CC1CC#N (stereo not drawn) [Compound 72, 2-(1-(2-fluoroacryloyl)-4-(7-(8-methylnaphthalen-1-yl)-2-((1-(pyrrolidin-1-ylmethyl)cyclopropyl)methoxy)-5,6,7,8-tetrahydropyrido[3,4-d]pyrimidin-4-yl)piperazin-2-yl)acetonitrile] | 215 | 378 | 11.8 |
| C=C(F)C(=O)N1CCN(c2nc(OCC3(CN4CCC4)CC3)nc3c2CCN(c2cccc4cccc(C)c24)C3)CC1CC#N (stereo not drawn) [Compound 73, 2-(4-(2-((1-(azetidin-1-ylmethyl)cyclopropyl)methoxy)-7-(8-methylnaphthalen-1-yl)-5,6,7,8-tetrahydropyrido[3,4-d]pyrimidin-4-yl)-1-(2-fluoroacryloyl)piperazin-2-yl)acetonitrile] | 963 | 883 | 17 |
